Target: T1, Angiotensin II Receptor (Bos taurus, UniProt P25104)
T1 construct: added in 20 ul to wells before the introduction of tissue membranes; from tissue; host or cells: microsomal membranes of an unnamed tissue
T1 sequence (P25104 1-359): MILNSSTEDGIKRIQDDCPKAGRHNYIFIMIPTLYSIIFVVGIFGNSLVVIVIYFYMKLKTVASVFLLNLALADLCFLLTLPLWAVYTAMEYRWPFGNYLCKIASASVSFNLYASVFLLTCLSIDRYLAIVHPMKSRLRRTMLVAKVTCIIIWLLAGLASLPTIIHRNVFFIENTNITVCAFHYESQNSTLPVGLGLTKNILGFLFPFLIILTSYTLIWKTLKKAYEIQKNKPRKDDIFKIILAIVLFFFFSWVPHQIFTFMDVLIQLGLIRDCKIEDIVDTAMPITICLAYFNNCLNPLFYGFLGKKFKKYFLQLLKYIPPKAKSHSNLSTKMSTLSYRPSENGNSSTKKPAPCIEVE
Assay: Receptor Binding Assay: displacement of [^125 I](Sar^1,Ile^8)AngII from microsomal membranes
Settings: pH 7.4, 60 min, room temperature
Protocol: Binding of [^125 I](Sar^1, Ile^8)AngII
The binding of [^125 I](Sar^1,Ile^8)AngII to microsomal membranes is initiated by the addition of reconstituted membranes (1:10 vols.) in freshly made 50.0 mMTris.HCl buffer, pH 7.4 containing 0.25% heat inactivated bovine serum albumin (BSA): 80 ul membrane protein (10 to 20 ug/assay) to wells already containing 100 ul of incubation buffer (as described above) and 20 ul [^125 I](Sar^1,Ile^8)AngII (Specific Activity, 2200 Ci/mmole). Non-specific binding is measured in the presence of 1.0 uM unlabeled (Sar^1,Ile^8 )AngII, added in 20 ul volume. Specific binding for [^125 I](Sar^1,Ile^8) AngII is greater than 90%. In competition studies, experimental compounds are diluted in dimethylsulfoxide (DMSO) and added in 20 ul to wells before the introduction of tissue membranes. This concentration of DMSO is found to have no negative effects on the binding of [^125 I](Sar^1,Ile^8) AngII to the membranes. Assays are performed in triplicate. […] Presoaking the filter sheet in 0.1% polyethylenemine in normal saline (PEI/Saline) greatly reduces the radioactivity retained by the filter blanks. […] The filters are removed from the filter grid and counted in a Parkard® Cobra Gamma Counter for 1 min. […] The binding data are analyzed by the non-linear interactive "LUNDON-1" program (LUNDON SOFTWARE Inc., Cleveland, Ohio U.S.A.). […]

## CCCCc1nc2c(c(=O)n1Cc1ccc(-c3ccccc3-c3nn[nH]n3)cc1)CN(C(=O)c1cccnc1)CC2 [Example 10]
  IC50: 51 nM

Reference: patent publication US5296480A, “Angiotensin II receptor blocking 2,3,6-substituted 5,6,7,8-tetra-hydro-pyrido[4,3]pyrimidin-4(3H)-ones” (American Cyanamid Company, priority 1993, dated 1994)
